Several values for one entry are separate records, joined by “and”; a condition that tells them apart may be missing. Identical values can stand only once.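 Interpolation was linear, between the two tested concentrations surrounding the appropriate level; five concentrations were tested over 48 hours in 96-well plates. At the GI50, growth is halved. At the TGI there is no net growth.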 Where a SMILES comes first, the peptide text is derived from it. The star is where a group is joined. Cbz = O=C(OCc1ccccc1)*
What was measured:
Experiment in all cases: DTP human tumour cell line panel, 48 h
IGROV1 ovarian = system: IGROV1 ovarian
SK-MEL-28 melanoma = system: SK-MEL-28 melanoma
SR leukemia = system: SR leukemia
SK-MEL-2 melanoma = system: SK-MEL-2 melanoma
LOX IMVI melanoma = system: LOX IMVI melanoma
COLO 205 colon = system: COLO 205 colon
HCT-116 colon = system: HCT-116 colon
HCC-2998 colon = system: HCC-2998 colon
NCI-H460 lung = system: NCI-H460 lung
MCF7 breast = system: MCF7 breast

SMILES	TGI (IGROV1 ovarian)	TGI (SK-MEL-28 melanoma)	TGI (SR leukemia)	TGI (SK-MEL-2 melanoma)	TGI (LOX IMVI melanoma) [µM]	TGI (COLO 205 colon)	TGI (HCT-116 colon)	TGI (HCC-2998 colon)	TGI (NCI-H460 lung)	TGI (MCF7 breast) [µM]	GI50 (IGROV1 ovarian) [µM]	GI50 (SK-MEL-28 melanoma) [µM]	GI50 (SR leukemia) [µM]	GI50 (HCT-116 colon) [µM]	GI50 (HCC-2998 colon) [µM]	GI50 (NCI-H460 lung) [µM]	GI50 (SK-MEL-2 melanoma) [µM]	GI50 (LOX IMVI melanoma) [µM]	GI50 (COLO 205 colon) [µM]	GI50 (MCF7 breast) [µM]
O=C(CBr)c1ccc2cc(Br)c3ccccc3c2c1	62.4 µM	57.5 µM	46.3 µM	45.1 µM	> 100	> 100 µM	> 100 µM	> 100 µM	54.4 µM	73.8										
C=CC1(CC[C@]2(c3ccc(OC)c(OC)c3)C=[N+]([O-])O[C@H](O[C@@H]3CCCC[C@H]3C(C)(C)c3ccccc3)C2)OCC(C)(C)CO1	23.7 µM	53.8 µM	> 38.9 µM	28.7 µM	35.1	> 53.3 µM	41.3 µM	31.3 µM	> 59.8 µM	> 42.4										
COCCn1cnc2c(Cl)nc(Nc3ccccc3)nc21	50.9 µM	> 100 µM	> 100 µM	47.4 µM	33.2	> 100 µM	> 100 µM	40 µM	> 100 µM	> 100										
COc1cccc(CC(=O)N2CCN(CCCc3ccccc3)CC2)c1	> 100 µM	> 100 µM	> 100 µM	> 100 µM	> 100	> 100 µM	> 100 µM	> 100 µM	> 100 µM	> 100										
C=C1CCCCCCCCC/C=C/1SCCCSC	> 100 µM	> 100 µM	> 100 µM	> 100 µM	> 100	> 100 µM	> 100 µM	> 100 µM	> 100 µM	> 100										
O=C1C(Br)=CC2(C=C1Br)CCNC1=C2C(=O)c2ncccc2C1=O	2.03 µM	2.17 µM	2.07 µM	0.38 µM	1.53	3.6 µM	1.74 µM	4.23 µM	1.46 µM	2.78										
CCCCCCc1cc2cc(C(=O)Nc3ccc(F)cc3)c(=N)oc2cc1O	4.47 µM	43.5 µM	8.23 µM	9.98 µM	4.93	> 100 µM	11.1 µM	> 100 µM	> 100 µM	33.7										
O=c1cc(NNc2cccc(Cl)c2)[nH]c(=O)[nH]1	> 100 µM	> 100 µM	> 100 µM	> 100 µM	29.6	> 100 µM	31.9 µM	> 100 µM	> 100 µM	17.3										
CCOC(=O)CCC(NC(=O)OCc1ccccc1)C(=O)NC(CCC(=O)OCC)C(=O)OCC (stereo not given) (Cbz-Glu(OEt)-Glu(OEt)-OEt; configuration not given here)	> 100 µM	> 100 µM	> 100 µM	> 100 µM	> 100	> 100 µM	> 100 µM	> 100 µM	> 100 µM	> 100										
Cc1ccnc2c1C(=O)C1=C(OC(C)(C)CC1O)C2=O (stereo not given)	11.3 µM	5.16 µM	15.4 µM	8.83 µM	8.91	6.52 µM	9.98 µM	15.3 µM	8.97 µM	7.94										
Oc1c(Br)ccc2cccnc12	15.6 µM	> 100 µM	> 27.7 µM	> 100 µM	> 28.5	> 33.8 µM	> 100 µM	> 100 µM	23.2 µM	2.73										
CC(=O)c1ccc2c(c1)C(=O)c1sc(C(C)=O)cc1C2=O	2.55 µM and 1.59 µM	14.2 µM and 3.61 µM	50 µM and > 100 µM	4.23 µM and 2.98 µM	2.12	7.94 µM	14.3 µM and 12.3 µM		7.31 µM and 11 µM	4.7	0.43	1.85	0.0247	0.349	1.71	0.362				
CC(=O)OCC1OC(n2c(C)c(N=Nc3ccc(Cl)cc3)c(C)c(C#N)c2=S)C(OC(C)=O)C(OC(C)=O)C1OC(C)=O (stereo not given)	> 100 µM	> 100 µM	> 100 µM	92.1 µM	> 100	> 100 µM	> 100 µM	> 100 µM	> 100 µM	> 100										
CCOc1cc(NC(C)=O)ccc1C(=O)NNS(=O)(=O)c1ccc(NC(C)=O)cc1	> 100 µM	> 100 µM	> 100 µM	95.2 µM	> 100	76.2 µM	> 100 µM	> 100 µM	> 100 µM	> 100										
N#Cc1cc2c(cc1Cl)Sc1nnc(Nc3ccccc3)n1S2(=O)=O	5.76 µM	5.4 µM	0.696 µM	8.26 µM	3.75	4.75 µM	4 µM	3 µM	9.22 µM	> 40.4										
CCC(=O)OCN(C)c1nc(N(C)COC(=O)CC)nc(N(C)COC(=O)CC)n1	> 100 µM	> 100 µM	71 µM	42 µM	70.3	59.2 µM	64 µM	68.6 µM	> 100 µM	> 100										

SMILES	TGI (IGROV1 ovarian)	TGI (SK-MEL-28 melanoma)	TGI (SR leukemia)	TGI (SK-MEL-2 melanoma)	TGI (LOX IMVI melanoma) [µM]	TGI (COLO 205 colon)	TGI (HCT-116 colon)	TGI (HCC-2998 colon)	TGI (NCI-H460 lung)	TGI (MCF7 breast) [µM]	GI50 (IGROV1 ovarian) [µM]	GI50 (SK-MEL-28 melanoma) [µM]	GI50 (SR leukemia) [µM]	GI50 (HCT-116 colon) [µM]	GI50 (HCC-2998 colon) [µM]	GI50 (NCI-H460 lung) [µM]	GI50 (SK-MEL-2 melanoma) [µM]	GI50 (LOX IMVI melanoma) [µM]	GI50 (COLO 205 colon) [µM]	GI50 (MCF7 breast) [µM]
CC(=O)SC(C[N+](=O)[O-])c1ccc2c(c1)OCO2 (stereo not given)	19.8 µM	9.78 µM	7.27 µM	14.8 µM	4.35	36.9 µM	5.22 µM	3.47 µM	26.2 µM	6.93										
CN1CCCOC(c2ccc(Cl)cc2)O1 (stereo not given)	> 100 µM	> 100 µM	> 100 µM	> 100 µM	> 100	> 100 µM	> 100 µM	> 100 µM	> 100 µM	> 100										
CCOC(=O)CCC1(CCC(=O)OCC)CCCCCCCCC(CCC(=O)OCC)(CCC(=O)OCC)C(=O)C1=O	> 100 µM	> 100 µM	> 100 µM	> 100 µM	> 100	> 100 µM	> 100 µM	> 100 µM	> 100 µM	> 100										
O=C1/C(=C\c2cccc(Oc3ccccc3)c2)S(=O)(=O)C(c2ccccc2)N1c1cccc(Cl)c1 (stereo not given)	> 100 µM	> 100 µM	> 100 µM	> 100 µM	44.8	> 100 µM	> 100 µM	> 100 µM	> 100 µM	> 100										
CC1(C)OP(=O)(O)C=C1Sc1ccc([N+](=O)[O-])cc1[N+](=O)[O-]	> 100 µM	> 100 µM	> 100 µM	> 100 µM	> 100	> 100 µM	> 100 µM	> 100 µM	> 100 µM	> 100										
O=C(N[C@@H](Cc1coc2ccccc12)B(O)O)[C@@H]1C[C@H]2CC[C@@H]1O2	> 100 µM	> 100 µM	> 100 µM	> 100 µM	34.5	> 100 µM	27.1 µM	21.1 µM	> 100 µM	> 100	16.1	4.5	1.26	3.25	5.11	30.7	6.08	5.21	23.1	3.25
CCC1CC(O)c2c(O)c3c(c(O)c2C1O)C(=O)c1cccc(O)c1C3=O (stereo not given) (tested in a mixture with another compound)	0.239 µM and 1.02 µM	0.0712 µM and 0.0612 µM	0.0605 µM and 0.0406 µM	0.0457 µM	0.0509	0.0939 µM and 0.019 µM	0.741 µM	0.0478 µM and 0.0298 µM	0.271 µM	6.04										
COc1ccc(C2(CC(C)C)CCN(S(=O)(=O)c3ccc(C)cc3)C2)cc1OC (stereo not given)	> 100 µM	> 100 µM	> 100 µM	47.2 µM	74.3	> 100 µM	92.6 µM	> 100 µM	> 100 µM	> 100										
Cc1ccc(C(=O)NCc2ccccc2)cc1N=NN(C)C	> 100 µM	> 100 µM	> 100 µM	> 100 µM	> 100	> 100 µM	> 100 µM	> 100 µM	> 100 µM	> 100										
CN1CCN(/C(N)=C(\C#N)C(=O)Nc2ccc(Cl)cc2)CC1	> 100 µM	> 100 µM	95.3 µM	> 100 µM	> 100	35.2 µM	> 100 µM	> 100 µM	> 100 µM	> 100										
CC1(C)O[C@H]2OC(CO)C(N=[N+]=[N-])[C@H]2O1 (stereo not given in full)	> 100 µM	> 100 µM	> 100 µM	> 100 µM	> 100	> 100 µM	> 100 µM	> 100 µM	> 100 µM	> 100										
CCOC(=O)C(Cc1ccc(O)cc1)Nc1nc(=O)c2c(=O)oc(Cl)cc2o1 (stereo not given)	19.4 µM	21 µM	7.53 µM	34.3 µM	27.9	37.9 µM	20.9 µM	17.6 µM	> 57.2 µM	17.6										
O=C1OCC2OC(=O)c3cc(O)c(O)c(O)c3-c3c(O)c(O)c(O)c4c3C(=O)OC(C2OC(=O)c2cc(O)c(O)c(O)c2-c2c1cc(O)c(O)c2O)C1OC(=O)C2C4=C(O)C(=O)C23Oc2cc(O)c4c(c2[C@H]13)O[C@H](c1ccc(O)c(O)c1)[C@@H](O)C4 (stereo not given in full)	> 100 µM	> 100 µM	> 100 µM	64.4 µM	38.3	54.9 µM	40.3 µM	> 100 µM	> 100 µM	46.3										
O=[N+]([O-])c1c(F)c(F)c2c(c1F)N(CCCCCl)c1ccccc1S2	5.36 µM	10.9 µM	> 100 µM	8.18 µM	3.06	27.5 µM	11.2 µM	8.48 µM	9.91 µM	11.9										
CS(=O)(=O)N1CC(CCl)c2ccc(O)cc21 (stereo not given)	4.5 µM	14.2 µM	77.4 µM	8.94 µM	14.4	4.34 µM	11.1 µM	4.2 µM	11.3 µM	> 100										
NCCCN(CCCN)CCc1cn(C(=O)c2ccccc2)cn1	17.4 µM	33.2 µM	13.9 µM	24.7 µM	43.5	9.58 µM	> 51.2 µM	19 µM	39 µM	11.4										
